We go through twelve compounds from patent US8552007B2, “Mesoionic pesticides” (E.I. du Pont de Nemours and Company, priority 2008, dated 2013).

Where a name gives a salt, the structure may show the parent alone. Read-outs that look alike come from different tables or passages of the source.

Data set [1] concerns potato leafhopper (Empoasca fabae). Kind of data set: whole plant or invertebrate. The format is in vivo. Particulars: 144 h, Soleil bean plant, 6 days; for mortality at 250 ppm: sprayed at 250 ppm; for mortality at 50 ppm: sprayed at 50 ppm. The protocol: For evaluating control of potato leafhopper (Empoasca fabae) through contact and/or systemic means, the test unit consisted of a small open container with a 5-6-day-old Soleil bean plant (primary leaves emerged) inside. White sand was added to the top of the soil and one of the primary leaves was excised prior to application.
Test compounds were formulated and sprayed at 250 and 50 ppm, and the tests were replicated three times as described for Test A. After spraying, the test units were allowed to dry for 1 h before they were post-infested with 5 potato leafhoppers (18-21-day-old adults). A black, screened cap was placed on the top of the cylinder. The test units were held for 6 days in a growth chamber at 24° C. and 70% relative humidity. Each test unit was then visually assessed for insect mortality.

In data set [2] the test system is corn planthopper (Peregrinus maidis). Kind of data set: whole plant or invertebrate. The format is in vivo. The following applies: 144 h. On the procedure: For evaluating control of corn planthopper (Peregrinus maidis) through contact and/or systemic means, the test unit consisted of a small open container with a 3-4-day-old maize plant (spike) inside. White sand was added to the top of the soil prior to application. Test compounds were formulated and sprayed at 250 and 50 ppm and replicated three times as described for Test A. After spraying, the test units were allowed to dry for 1 h before they were post-infested with ˜15-20 nymphs (18 to 21 day old) by sprinkling them onto the sand with a salt shaker. A black, screened cap was placed on the top of the cylinder. The test units were held for 6 days in a growth chamber at 22-24° C. and 50-70% relative humidity. Each test unit was then visually assessed for insect mortality.

For data set [3], the system named is green peach aphid (Myzus persicae). Kind of data set: whole plant or invertebrate. It counts as in vivo. The following applies: 144 h, sprayed at 250 ppm, radish plant, 6 days. The source says:
For evaluating control of green peach aphid (Myzus persicae) through contact and/or systemic means, the test unit consisted of a small open container with a 12-15-day-old radish plant inside. This was pre-infested by placing on a leaf of the test plant 30-40 aphids on a piece of leaf excised from a culture plant (cut-leaf method). The aphids moved onto the test plant as the leaf piece desiccated. After pre-infestation, the soil of the test unit was covered with a layer of sand.
Test compounds were formulated and sprayed at 250 ppm as described for Test A. The applications were replicated three times. After spraying of the formulated test compound, each test unit was allowed to dry for 1 h and then a black, screened cap was placed on top. The test units were held for 6 days in a growth chamber at 19-21° C. and 50-70% relative humidity. Each test unit was then visually assessed for insect mortality.

Data set [4] concerns cat flea (Ctenocephalides felis). Put plainly: whole plant or invertebrate. The format is in vivo. Particulars: 20 μL of 500 ppm solution on filter paper, adult fleas, 48 hours. On the procedure:
For evaluating control of the cat flea (Ctenocephalides felis), a test compound was solubilized in acetone:water (75:25) to a final test rate of 500 ppm. Then 20 μL of the 500 ppm solution was applied to filter paper in the bottom of a tube. The tube was allowed to dry for 3 hours. Then approximately 10 adult fleas were added to the tube and the tube was capped. The fleas were evaluated for mortality 48 hours later.

Data set [5] has the same test system. Put plainly: whole plant or invertebrate. It counts as in vivo. Particulars: 30 ppm in bovine blood, adult fleas, 72 h. The protocol: For evaluating control of the cat flea (Ctenocephalides felis), a test compound was solubilized in propylene glycol/glycerol formal (60:40) and then diluted in bovine blood to a final test rate of 30 ppm. The treated blood was placed in a tube with the bottom of the tube covered with a membrane. Approximately 10 adult cat fleas were allowed to feed through the membrane on the treated blood. The adult fleas were evaluated for mortality 72 h later.

Setting [6] is: sprayed at 50 ppm, maize plant, 6 days, read-out: mortality.
Where [7] appears, read: sprayed at 250 ppm, maize plant, 6 days, read-out: mortality.

In general, mortality refers to the share of the test organisms that died. With `COc1cccc(-c2ncc(C[n+]3c([O-])c(I)c(=O)n4ccccc43)s2)c1` [Compound 613, 2-hydroxy-3-iodo-1-[[2-(3-methoxyphenyl)-5-thiazolyl]methyl]-4-oxo-4H-pyrido[1,2-a]-pyrimidinium inner salt], the mortality at 250 ppm in data set [1] and in data set [2] (setting [7]) was not below 80% in each case. In data set [2] (setting [6]), the mortality at 50 ppm was not below 80%.

In data set [2], `O=c1c(C2CCc3ccccc32)c([O-])[n+](Cc2ccc(Cl)nc2)c2ccccn12` (stereo not drawn) [Compound 757] gave a mortality at 50 ppm not below 80% and a mortality at 250 ppm not below 80%.

Take `O=c1c(-c2ccccc2)c([O-])[n+](C2CCOCC2)c2ccccn12` [Compound 583]: in data set [2] (setting [7]), the mortality at 250 ppm is not below 80%.

As to `O=c1c(I)c([O-])[n+](CC(F)(F)F)c2ccccn12` [Compound 111], the mortality at 50 ppm in data set [1] and in data set [2] (setting [6]) was not below 80% in each case. Besides, the mortality at 250 ppm in data set [1], in data set [3] and in data set [2] (setting [7]) was not below 80% throughout.

As a reminder, the melting point is the temperature of the solid-liquid transition. Compound `O=c1cc([O-])[n+](CC(F)(F)F)c2ccccn12` (as salt: salt) [Compound 610, 2-hydroxy-4-oxo-1-(2,2,2-trifluoroethyl)-4H-pyrido[1,2-a]-pyrimidinium inner salt] returned a melting point of 214 to 215 °C.

The compound `O=C(c1c([O-])[n+](CC(F)(F)F)c2ccccn2c1=O)C(F)(F)F` [Compound 711, 2-hydroxy-4-oxo-3-(2,2,2-trifluoroacetyl)-1-(2,2,2-trifluoroethyl)-4H-pyrido[1,2-a]-pyrimidinium inner salt] returned a mortality at 50 ppm in data set [1] not below 80%.

Turning to `O=c1c(-c2ccc(F)nc2)c([O-])[n+](CC(F)(F)F)c2ccccn12` [Compound 571], the mortality at 250 ppm in data set [1] and in data set [2] (setting [7]) was not below 80% in each case. The mortality at 50 ppm in data set [2] (setting [6]) is not below 80%.

Turning to `COc1cccc(-c2ncc(C[n+]3c([O-])c(-c4ccccc4)c(=O)n4ccccc43)s2)c1` [Compound 520], in data set [4], the mortality at 500 ppm was not below 50%.

Turning to `CC(C)c1c([O-])[n+](CC(F)(F)F)c2ccccn2c1=O` [Compound 115], in data set [2] (setting [7]), the mortality at 250 ppm is not below 80%. The mortality at 500 ppm in data set [4] is not below 50%.

As for `COc1cccc(-c2ccc(C[n+]3c([O-])c(-c4ccccc4)c(=O)n4ccccc43)cn2)c1` [Compound 599], the mortality at 50 ppm in data set [2] (setting [6]) is not below 80%. The compound further had a mortality at 30 ppm in data set [5] not below 50%. Further, the mortality at 500 ppm in data set [4] was not below 50%.

Take `O=c1c(-c2ccncc2Cl)c([O-])[n+](CC(F)(F)F)c2ccccn12` [Compound 121]: the mortality at 50 ppm in data set [2] (setting [6]) is not below 80%. The mortality at 250 ppm in data set [2] (setting [7]) was not below 80%. The compound also showed a mortality at 30 ppm in data set [5] not below 50%. Moreover, the mortality at 500 ppm in data set [4] was not below 50%.

As to `O=c1c(-c2ccc(Cl)nc2)c([O-])[n+](CC(F)(F)F)c2ccccn12` [Compound 570], the mortality at 50 ppm in data set [1] and in data set [2] (setting [6]) was not below 80% throughout. For the same compound, the mortality at 250 ppm in data set [1] and in data set [2] (setting [7]) was not below 80% each time.
